Activity calls are given as the source filed them.
How the values were obtained:
Caspase-3 = target: T1, Caspase-3 (Homo sapiens, UniProt P42574); type: functional;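 further: Dose-response selectivity test against caspase-3 for candidate inhibitors of sentrin-specific proteases (SENPs)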
T1 sequence (P42574 whole entry): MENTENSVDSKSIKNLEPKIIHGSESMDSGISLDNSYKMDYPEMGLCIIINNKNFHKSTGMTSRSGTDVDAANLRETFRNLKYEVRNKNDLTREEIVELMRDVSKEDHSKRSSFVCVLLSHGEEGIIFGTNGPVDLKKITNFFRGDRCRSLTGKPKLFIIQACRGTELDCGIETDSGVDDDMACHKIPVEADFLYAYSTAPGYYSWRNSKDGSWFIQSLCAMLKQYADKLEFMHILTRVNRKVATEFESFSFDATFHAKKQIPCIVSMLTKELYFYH

[1] = target: T2, Sentrin-specific protease 7 (Homo sapiens, UniProt Q9BQF6); type: functional;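 further: Luminescence-based dose-response confirmation of ultra-high-throughput screening hits, measuring inhibition of SENP7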
T2 sequence (Q9BQF6 whole entry): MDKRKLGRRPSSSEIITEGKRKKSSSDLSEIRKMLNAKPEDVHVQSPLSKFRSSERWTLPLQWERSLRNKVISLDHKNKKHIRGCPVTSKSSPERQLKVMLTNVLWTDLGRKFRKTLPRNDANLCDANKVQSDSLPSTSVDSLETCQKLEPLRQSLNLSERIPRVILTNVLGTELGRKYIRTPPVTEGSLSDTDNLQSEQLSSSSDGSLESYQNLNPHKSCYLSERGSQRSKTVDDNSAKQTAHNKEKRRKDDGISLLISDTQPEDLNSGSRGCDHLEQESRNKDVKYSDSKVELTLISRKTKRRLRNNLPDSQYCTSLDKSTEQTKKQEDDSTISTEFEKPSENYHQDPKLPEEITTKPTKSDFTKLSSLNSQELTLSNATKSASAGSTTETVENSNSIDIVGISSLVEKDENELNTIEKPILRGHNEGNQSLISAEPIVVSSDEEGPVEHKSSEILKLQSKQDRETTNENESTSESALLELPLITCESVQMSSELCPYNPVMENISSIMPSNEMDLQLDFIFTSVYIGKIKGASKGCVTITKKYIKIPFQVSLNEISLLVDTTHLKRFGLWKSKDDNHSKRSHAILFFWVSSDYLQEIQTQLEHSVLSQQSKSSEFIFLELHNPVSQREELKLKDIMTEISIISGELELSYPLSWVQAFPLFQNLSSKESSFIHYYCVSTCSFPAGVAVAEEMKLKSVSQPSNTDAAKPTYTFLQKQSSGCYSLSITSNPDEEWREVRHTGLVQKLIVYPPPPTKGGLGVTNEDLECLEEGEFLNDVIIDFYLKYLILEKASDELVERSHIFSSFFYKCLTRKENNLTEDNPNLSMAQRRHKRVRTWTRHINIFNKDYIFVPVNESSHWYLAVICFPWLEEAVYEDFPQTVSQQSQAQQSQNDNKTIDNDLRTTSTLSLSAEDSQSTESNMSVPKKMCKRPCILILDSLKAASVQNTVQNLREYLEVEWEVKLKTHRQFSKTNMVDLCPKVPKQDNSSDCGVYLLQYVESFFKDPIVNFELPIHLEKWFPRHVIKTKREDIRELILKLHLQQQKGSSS

[2] = target: T3, Sentrin-specific protease 6 (Homo sapiens, UniProt Q9GZR1); type: functional;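 further: Luminescence-based dose-response confirmatory assay of SENP6 inhibition, following up an ultra-high-throughput screen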
T3 sequence (Q9GZR1 whole entry): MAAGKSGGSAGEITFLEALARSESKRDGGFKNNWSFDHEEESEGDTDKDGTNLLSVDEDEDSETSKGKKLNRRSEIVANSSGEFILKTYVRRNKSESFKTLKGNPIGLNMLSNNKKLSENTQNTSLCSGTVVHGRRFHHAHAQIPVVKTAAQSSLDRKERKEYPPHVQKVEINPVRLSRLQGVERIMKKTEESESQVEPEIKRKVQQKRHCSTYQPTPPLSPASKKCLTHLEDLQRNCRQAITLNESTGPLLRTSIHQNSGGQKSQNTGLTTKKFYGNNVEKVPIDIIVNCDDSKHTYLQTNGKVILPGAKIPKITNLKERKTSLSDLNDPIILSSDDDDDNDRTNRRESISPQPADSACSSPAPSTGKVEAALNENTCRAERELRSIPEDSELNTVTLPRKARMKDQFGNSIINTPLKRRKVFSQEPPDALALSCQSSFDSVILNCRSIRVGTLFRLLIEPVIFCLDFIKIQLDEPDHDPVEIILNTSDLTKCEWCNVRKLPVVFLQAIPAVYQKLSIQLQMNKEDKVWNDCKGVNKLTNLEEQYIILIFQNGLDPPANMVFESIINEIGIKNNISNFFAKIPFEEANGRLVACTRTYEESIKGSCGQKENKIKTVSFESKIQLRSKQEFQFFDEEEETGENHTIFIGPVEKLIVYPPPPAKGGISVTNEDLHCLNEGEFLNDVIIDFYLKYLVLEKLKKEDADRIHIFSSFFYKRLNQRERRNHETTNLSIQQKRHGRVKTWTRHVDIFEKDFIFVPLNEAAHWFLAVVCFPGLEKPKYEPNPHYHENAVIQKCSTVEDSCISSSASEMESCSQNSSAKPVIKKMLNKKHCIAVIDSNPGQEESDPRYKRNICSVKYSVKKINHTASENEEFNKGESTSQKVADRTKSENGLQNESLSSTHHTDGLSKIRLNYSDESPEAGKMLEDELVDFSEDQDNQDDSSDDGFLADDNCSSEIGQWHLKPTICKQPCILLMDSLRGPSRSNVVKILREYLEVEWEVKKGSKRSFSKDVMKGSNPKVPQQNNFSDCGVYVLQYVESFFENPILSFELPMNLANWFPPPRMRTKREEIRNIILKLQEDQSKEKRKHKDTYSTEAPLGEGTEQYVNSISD

[3] = target: T4, Sentrin-specific protease 8 (Homo sapiens, UniProt Q96LD8); type: functional;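 further: luminescence read-out of SENP8 inhibition, dose-response confirmation following an ultra-high-throughput screen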
T4 sequence (Q96LD8 whole entry): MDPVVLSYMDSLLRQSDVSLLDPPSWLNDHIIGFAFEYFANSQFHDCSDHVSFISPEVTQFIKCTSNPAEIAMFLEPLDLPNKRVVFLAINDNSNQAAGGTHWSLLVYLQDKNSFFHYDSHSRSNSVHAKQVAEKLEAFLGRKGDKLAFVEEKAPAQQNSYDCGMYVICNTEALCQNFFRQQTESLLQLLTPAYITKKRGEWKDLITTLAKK

INS1 = assay: beta cell apoptosis inhibitors, cytokine rescue, dose response, luminescence, retest (AID 449756); type: functional, cell-based; settings: Rattus norvegicus;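 further: cell death triggered by IL-1 beta plus TNF-alpha plus IFN-gamma mixture; protective hits raise ATP signal compared with cytokine alone wells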
[4] = target: T5, Corticotropin-releasing factor receptor 2/Corticotropin-releasing factor-binding protein (Homo sapiens, UniProt P24387+Q13324); assay: activators of CRF receptor 2 with binding protein – uHTS hits, confirmation (AID 602473); type: functional; settings: read-out: EC50_Mean
T5 sequence (Q13324 whole entry): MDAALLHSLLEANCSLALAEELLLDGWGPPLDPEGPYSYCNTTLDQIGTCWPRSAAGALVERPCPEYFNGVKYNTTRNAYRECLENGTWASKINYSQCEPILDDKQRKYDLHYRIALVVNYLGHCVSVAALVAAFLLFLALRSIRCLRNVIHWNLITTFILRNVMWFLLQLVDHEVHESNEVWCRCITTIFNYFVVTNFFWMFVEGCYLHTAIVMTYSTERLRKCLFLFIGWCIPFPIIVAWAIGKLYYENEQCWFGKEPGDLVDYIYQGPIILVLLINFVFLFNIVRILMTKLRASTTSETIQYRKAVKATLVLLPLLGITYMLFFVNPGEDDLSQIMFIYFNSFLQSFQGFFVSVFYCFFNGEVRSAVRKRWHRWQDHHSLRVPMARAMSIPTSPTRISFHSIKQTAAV
T5 sequence (P24387 whole entry): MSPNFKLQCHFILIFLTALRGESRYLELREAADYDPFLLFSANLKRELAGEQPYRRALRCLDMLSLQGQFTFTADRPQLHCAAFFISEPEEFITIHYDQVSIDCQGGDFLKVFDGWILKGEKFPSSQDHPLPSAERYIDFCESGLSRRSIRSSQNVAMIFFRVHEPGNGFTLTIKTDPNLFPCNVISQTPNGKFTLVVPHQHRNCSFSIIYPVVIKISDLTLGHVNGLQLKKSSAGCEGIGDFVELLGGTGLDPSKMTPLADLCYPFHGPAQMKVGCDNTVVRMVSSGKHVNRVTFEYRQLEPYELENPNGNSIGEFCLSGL

[5] = target: T6, Short transient receptor potential channel 4 (Mus musculus, UniProt Q9QUQ5); assay: mouse TRPC4 channel activators, dose response, cell-based, HEK293 TRPC4/mu-opioid, Fluo-4 calcium (AID 434937); type: functional
T6 sequence (Q9QUQ5 whole entry): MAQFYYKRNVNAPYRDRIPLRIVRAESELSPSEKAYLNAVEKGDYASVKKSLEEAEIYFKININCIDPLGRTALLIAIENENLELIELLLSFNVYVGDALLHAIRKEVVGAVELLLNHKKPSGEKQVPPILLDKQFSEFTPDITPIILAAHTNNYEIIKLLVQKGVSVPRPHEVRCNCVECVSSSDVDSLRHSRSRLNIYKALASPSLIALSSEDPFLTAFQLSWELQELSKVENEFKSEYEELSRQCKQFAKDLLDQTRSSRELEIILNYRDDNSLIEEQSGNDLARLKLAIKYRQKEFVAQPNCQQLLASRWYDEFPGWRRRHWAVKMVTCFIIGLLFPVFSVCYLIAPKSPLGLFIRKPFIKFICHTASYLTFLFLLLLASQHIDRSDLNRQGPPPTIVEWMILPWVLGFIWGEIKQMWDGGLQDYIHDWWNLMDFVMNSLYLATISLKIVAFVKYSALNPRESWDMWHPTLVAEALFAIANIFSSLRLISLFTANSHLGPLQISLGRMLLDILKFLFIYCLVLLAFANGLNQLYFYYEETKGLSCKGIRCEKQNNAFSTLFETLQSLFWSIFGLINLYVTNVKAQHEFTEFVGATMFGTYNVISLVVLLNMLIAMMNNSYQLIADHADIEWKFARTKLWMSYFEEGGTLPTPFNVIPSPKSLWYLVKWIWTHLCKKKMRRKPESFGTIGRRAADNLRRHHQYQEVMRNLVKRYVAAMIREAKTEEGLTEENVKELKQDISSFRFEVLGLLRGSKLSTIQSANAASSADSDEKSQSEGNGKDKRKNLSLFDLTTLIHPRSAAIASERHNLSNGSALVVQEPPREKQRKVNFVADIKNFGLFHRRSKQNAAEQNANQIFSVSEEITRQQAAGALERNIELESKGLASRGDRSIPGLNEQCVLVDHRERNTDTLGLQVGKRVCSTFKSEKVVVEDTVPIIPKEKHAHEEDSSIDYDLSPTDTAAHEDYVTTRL

[6] = target: T7, High affinity choline transporter 1 (Homo sapiens, UniProt Q9GZV3); assay: CHT inhibitors, dose response, cell-based, 5-point CRC, membrane potential dye (AID 504840); type: functional
T7 sequence (Q9GZV3 whole entry): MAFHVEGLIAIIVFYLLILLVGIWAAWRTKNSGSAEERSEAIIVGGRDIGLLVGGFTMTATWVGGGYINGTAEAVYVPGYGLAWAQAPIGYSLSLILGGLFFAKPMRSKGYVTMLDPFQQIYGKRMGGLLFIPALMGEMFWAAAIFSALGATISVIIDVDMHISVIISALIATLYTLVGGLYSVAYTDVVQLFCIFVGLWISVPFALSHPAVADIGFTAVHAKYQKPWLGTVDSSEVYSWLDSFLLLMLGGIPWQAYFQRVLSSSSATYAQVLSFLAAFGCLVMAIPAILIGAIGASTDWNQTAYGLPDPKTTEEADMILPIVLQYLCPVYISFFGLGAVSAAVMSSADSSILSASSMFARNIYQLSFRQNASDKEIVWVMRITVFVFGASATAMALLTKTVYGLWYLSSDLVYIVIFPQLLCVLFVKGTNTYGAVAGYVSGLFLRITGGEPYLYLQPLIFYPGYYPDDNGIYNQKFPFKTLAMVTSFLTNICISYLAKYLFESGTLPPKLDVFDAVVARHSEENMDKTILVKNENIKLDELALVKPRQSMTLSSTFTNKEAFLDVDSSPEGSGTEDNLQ

[7] = target: Induced myeloid leukemia cell differentiation protein Mcl-1 (Homo sapiens, UniProt Q07820); type: functional
Induced myeloid leukemia cell differentiation protein Mcl-1, sequence (Q07820 whole entry): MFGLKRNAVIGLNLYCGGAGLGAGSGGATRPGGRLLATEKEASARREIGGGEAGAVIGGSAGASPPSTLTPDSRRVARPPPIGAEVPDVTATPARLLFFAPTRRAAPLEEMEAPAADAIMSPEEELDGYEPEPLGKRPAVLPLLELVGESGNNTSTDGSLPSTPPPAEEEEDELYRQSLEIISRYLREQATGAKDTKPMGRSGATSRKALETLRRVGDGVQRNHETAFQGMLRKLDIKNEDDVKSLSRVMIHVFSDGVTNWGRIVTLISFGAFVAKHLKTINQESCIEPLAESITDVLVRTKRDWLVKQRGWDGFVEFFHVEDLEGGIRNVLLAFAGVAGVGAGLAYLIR

[8] = HEp-2 cell cytotoxicity, dose response, cytotoxicity control for RSV inhibitor project, HTS (AID 2410); type: functional; settings: human respiratory syncytial virus
[9] = target: Glyceraldehyde-3-phosphate dehydrogenase (Homo sapiens, UniProt P04406)
Glyceraldehyde-3-phosphate dehydrogenase, sequence (P04406 whole entry): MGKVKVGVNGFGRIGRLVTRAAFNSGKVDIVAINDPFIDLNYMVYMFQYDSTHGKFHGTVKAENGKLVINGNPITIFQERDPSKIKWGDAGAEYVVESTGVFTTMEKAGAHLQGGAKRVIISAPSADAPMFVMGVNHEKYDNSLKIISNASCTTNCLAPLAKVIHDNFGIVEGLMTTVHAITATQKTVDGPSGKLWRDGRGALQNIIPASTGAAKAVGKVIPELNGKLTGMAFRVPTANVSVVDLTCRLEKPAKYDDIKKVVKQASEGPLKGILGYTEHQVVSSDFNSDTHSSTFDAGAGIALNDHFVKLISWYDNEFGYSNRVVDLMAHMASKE

Vero = assay: cells; type: functional; settings: Chlorocebus sabaeus

Row | SMILES | IC50 (Caspase-3) | IC50 [1] | IC50 [2] | IC50 [3] | also measured
1 | O=C(Nc1ccc(-c2noc(-c3cccs3)n2)cc1)c1cccnc1 | 54.8 µM (active) | 7.2 µM (active) | 76.2 µM (active) | > 100 µM (inactive) | AC50 (INS1): 6.36 µM (active)
2 | Cn1c2ccccc2c(=O)c2c(=O)n(C3CCCCCC3)c(C3CCCCC3)nc21 |  |  |  |  | EC50 [4]: 4.04 µM (active)
3 | COc1ccc(NC(=O)c2csc3c2CCCC3)cc1 | 19.2 µM (active) | 7.25 µM (active) | > 100 µM (inactive) | > 100 µM (inactive) | 
4 | COc1cc(OC)cc(C(=O)N[C@H](C(=O)OCC(=O)NC(C)c2ccccc2)C(C)C)c1 (stereo not given in full) |  |  |  |  | EC50 [5]: 6.68 µM (active); EC50 [4]: 16.4 µM (active)
5 | Cn1c(=O)[nH]c2nnc(-c3ccc(Cl)c(Cl)c3)nc2c1=O |  |  |  |  | IC50 [6]: 11.2 µM (active)
6 | C#CC[N+]1(CC#Cc2cccc(C)c2)CCCCC1 |  |  |  |  | IC50 [6]: 12 µM (active)
7 | O=c1c2ccccc2nc(-c2ccco2)n1-c1cccnc1 |  |  |  |  | IC50 [7]: < 0.4 µM (not active)
8 | CCO/C=C1\C(=O)N(c2ccccc2)C(=O)c2ccccc21 | 6.63 µM (active) | 36.9 µM (active) | 16.6 µM (active) | 50.7 µM (active) | 
9 | C=CCn1c2ccccc2c(=O)c2cc(C#Cc3ccccn3)ccc21 | 17.5 µM (active) | 5.93 µM (active) | 14.1 µM (active) | 20.8 µM (active) | CC50 [8]: 25.1 µM (active)
10 | CCN1CCN(C2=C(Cl)C(=O)N(c3ccc(C(F)(F)F)cc3)C2=O)CC1 |  |  |  |  | IC50 [9]: > 50 µM (inconclusive)
11 | CSc1ccc(/C=C/C(=O)c2ccc(O)cc2)cc1 | 19.9 µM (active) | 4.77 µM (active) | 9.4 µM (active) | 13.4 µM (active) | CC50 (Vero): 23.8 µM (active)

— ChEMBL document CHEMBL1201862, “PubChem BioAssay data set” (2004)
